Test results reported in patent EP4714947A1, “CRYSTAL FORM OF PYRIMIDO AZACYCLO COMPOUND, AND PREPARATION METHOD THEREFOR AND USE THEREOF” (TYK Medicines, Inc., priority 2023, dated 2024).
Converted amounts (≈) assume the structure as drawn. Read-outs that look alike come from different tables or passages of the source.

Legend:
[1] = tested on: tumor patients with RET fusion and mutation; details: cited from earlier work
[2] = Solid-state stability, 7 days at 60 °C/closed and 40 °C/75% RH (HPLC purity, XRPD); type: physicochemical; details: for Purity (Area%) 40 °C/ 75%RH / Purity (Area%) 60 °C/ Closed / XRPD 40 °C/ 75%RH / XRPD 60 °C/ Closed: 7 days; for Purity (Area%) 40 °C/ 75%RH / Purity (Area%) 60 °C/ Closed / Initial purity (Area%): HPLC; for Initial purity (Area%): before storage; for XRPD 40 °C/ 75%RH: crystal form after 40 °C/75% RH; for XRPD 60 °C/ Closed: crystal form after 60 °C/closed
Experimental: HPLC analysis was performed using Agilent HPLC 1260 series instruments. Table 37 HPLC Method for Solubility and Stability Tests

[3] = Pharmacokinetics in dogs after a single dose by gavage; details: for in vivo exposure levels: dog pharmacokinetic data, compared with free base crystal form I; for AUC0-last / AUCINF / Cmax / T1/2 / Tmax: dogs, single gavage dose 5mpk, 1mg/ml in 0.5%MC+1% tween 80 (Uniform suspension), 5 mg/kg
Experimental: (§1) Blood samples were collected at different time points to determine the drug concentration in the dog plasma after administration of the test substance and relevant pharmacokinetic parameters were calculated.
(§2) The specific preparation method was as follows: 10mg of the test sample was taken, 0.5% MC and 1% Tween 80 was added, the resulting mixture was vortex mixed to obtain a solution with a concentration of 1mg/mL. The solution was freshly prepared before use, mixed well through vortex, and set aside for later use.
(§3) Healthy male SD rats or dogs were used for this study. All animals were fasted before administration and resumed feeding 4 hours after administration.
(§4) (Time points ≤ 2 hours: ± 2 min; other points: ± 15 min.)
(§5) About 0.1 mL of blood was collected via the jugular vein from each animal, using EDTA or heparin sodium as anticoagulants. After collected, the blood sample was placed on ice and centrifuged to separate the plasma (centrifugation conditions: 10000 rpm, 5 minutes, and 4 °C).
(§6) The plasma samples were analyzed by LC-MS/MS by the analysis department of the experimental institution.

[4] = Pharmacokinetics in rats after a single dose by gavage; details: for in vivo exposure levels: rat pharmacokinetic data, compared with free base crystal form I; for AUC0-last / AUCINF / Cmax / T1/2 / Tmax: SD rats, single gavage dose 10mpk, 1mg/ml in 0.5% MC+1% tween 80 (Uniform suspension), 10 mg/kg
Experimental: (§7) Blood samples were collected at different time points to determine the drug concentration in the rat plasma after administration of the test substance and relevant pharmacokinetic parameters were calculated.
as §2, §3, §5, §6

[5] = in vivo; details: rat, po, 10 mg/kg
Experimental: as §7, §2, §3, §5, §6

[6] = in vivo; details: dog, po, 5 mg/kg
Experimental: as §1, §2, §3, §4, §5, §6

[7] = physchem
[8] = Rough solubility in 17 solvents by visual inspection at room temperature; details: for solubility: DMSO
[9] = physchem; remark: listed apart in the source
[10] = Solubility test in biological media and water at 37 °C (HPLC; XRPD of residue); details: for Solubility (µg/mL) 2 h / Solubility (µg/mL) 0.5 h / Solubility (µg/mL) 24 h: calculated using free base; for Solubility (µg/mL) 2 h: 120 min; for Solubility (µg/mL) 24 h: 1440 min
[11] = Evaluation of amorphous free base: suspension stirred in solvent at room temperature for 2 days; type: physicochemical; details: for Result (solid form obtained): suspension stirred at room temperature for 2 days
Experimental: 100 mg of the amorphous free base sample obtained in the present invention was weighed and a solvent was added to form a suspension. The mixture was stirred at room temperature for 2 days, and the results are as follows: […]

[12] = FaSSIF (pH=6.49), LOQ: ~1.0 µg/mL
[13] = crystal form after 24 h in FaSSIF (pH=6.49)
[14] = crystal form after 24 h in FeSSIF (pH=5.00)
[15] = crystal form after 24 h in SGF (pH=1.19)
[16] = crystal form after 24 h in Water (pH=5.45)

## CO[C@]1(C(=O)N[C@@H](C)c2ccc(-n3cc(F)cn3)nc2)CC[C@H](c2nc(C)cc(Nc3cc(C)[nH]n3)n2)CC1 [BLU-667]
[1]; patients with medullary thyroid carcinoma
  ORR: 40%
[1]; patients with non-small cell lung cancer
  ORR: 50%
[1]; tumor patients with RET fusion and mutation
  overall remission rate (ORR): 45%

## CCn1ncc2c(Nc3cc(C)[nH]n3)nc([C@H]3CC[C@](OC)(C(=O)N[C@@H](C)c4cnc(-n5cc(F)cn5)cn4)CC3)nc21 [Free base crystal form III]
[2]
  Purity (Area%) 40 °C/ 75%RH: 99.253 Area%
  Purity (Area%) 60 °C/ Closed: 99.212 Area%
  Initial purity (Area%): 99.316 Area%
  XRPD 40 °C/ 75%RH: Unchanged
  XRPD 60 °C/ Closed: Unchanged
[3]
  in vivo exposure levels: higher than those of free base crystal form I
  AUC0-last: 763.5 ng·h/mL
  AUCINF: 776.0 ng·h/mL
  Cmax: 151.5 ng/mL
  T1/2: 4.275 h
[4]
  in vivo exposure levels: higher than those of free base crystal form I
[5]
  AUC(0-inf): 1260 ng·h/mL
  AUC(0-t): 1250 ng·h/mL
  Cmax: 153 ng/mL
  Tmax: 6 h
  half-life: 3.18 h
[6]
  Tmax: 2 h

## CCn1ncc2c(Nc3cc(C)[nH]n3)nc([C@H]3CC[C@](OC)(C(=O)N[C@@H](C)c4cnc(-n5cc(F)cn5)cn4)CC3)nc21 [Free base crystal form I]
[3]
  AUC0-last: 673.5 ng·h/mL
  AUCINF: 684.0 ng·h/mL
  Cmax: 111.7 ng/mL
  T1/2: 2.835 h
  Tmax: 3.0 h
[4]
  AUC0-last: 1172.00 ng·h/mL
  AUCINF: 1197.00 ng·h/mL
  Cmax: 158.00 ng/mL
  T1/2: 2.69 h
  Tmax: 4.67 h
[7]; 2-me-thf
  solubility: 11100 to 12500 µg/mL (≈ 18.9 to 21.2 mM)
[7]; acetone
  solubility: 7100 to 8300 µg/mL (≈ 12.1 to 14.1 mM)
[7]; dcm
  solubility: 4600 to 5000 µg/mL (≈ 7.81 to 8.49 mM)
[7]; ea
  solubility: 2200 to 2300 µg/mL (≈ 3.74 to 3.91 mM)
[7]; etoh
  solubility: < 600 µg/mL
[7]; hept
  solubility: < 600 µg/mL
[7]; ipa
  solubility: < 600 µg/mL
[7]; ipac
  solubility: 1500 to 1600 µg/mL (≈ 2.55 to 2.72 mM)
[7]; mek
  solubility: 6300 to 7100 µg/mL (≈ 10.7 to 12.1 mM)
[7]; meoh
  solubility: ~1200 µg/mL (≈ 2.04 mM)
[7]; mtbe
  solubility: < 600 µg/mL
[7]; n-buoh
  solubility: < 600 µg/mL
[7]; thf
  solubility: > 40000 µg/mL
[7]; tol
  solubility: < 600 µg/mL
[7]; water
  solubility: < 600 µg/mL
[8]
  solubility: > 40000 µg/mL
[8]; listed as free base crystal form I
  solubility: >166700 µg/mL
[8]; THF
  Solubility (mg/mL): 41.7~50.0 mg/mL

## CCn1ncc2c(Nc3cc(C)[nH]n3)nc([C@H]3CC[C@](OC)(C(=O)N[C@@H](C)c4cnc(-n5cc(F)cn5)cn4)CC3)nc21 [Fumarate crystal form I]
[2]
  Purity (Area%) 40 °C/ 75%RH: 97.914 Area%
  Purity (Area%) 60 °C/ Closed: 98.119 Area%
  Initial purity (Area%): 98.062 Area%
  XRPD 40 °C/ 75%RH: Unchanged
  XRPD 60 °C/ Closed: Unchanged
[3]
  in vivo exposure levels: higher than those of free base crystal form I
  AUC0-last: 3807.0 ng·h/mL
  AUCINF: 4179.0 ng·h/mL
  Cmax: 617 ng/mL
  T1/2: 6.87 h
  Tmax: 4.0 h
[9]; fassif, pH 6.49
  solubility at 24 h: 22.7 µg/mL
[9]; fessif, pH 5
  solubility at 0.5 h: 84.2 µg/mL
  solubility at 2 h: 28.5 µg/mL
  solubility at 24 h: 20.9 µg/mL
[9]; sgf
  solubility at 0.5 h: 210 µg/mL
[9]; sgf, pH 1.19
  solubility at 0.5 h: 210 µg/mL
  solubility at 2 h: 204 µg/mL
  solubility at 24 h: 78.1 µg/mL
[10]; [12]
  Solubility (µg/mL) 2 h: 5.950 µg/mL
[10]; [13]
  XRPD (24 h): Almost amorphous
[10]; [14]
  XRPD (24 h): Unchanged
[10]; [15]
  XRPD (24 h): Unchanged
[10]; [16]
  XRPD (24 h): Unchanged
[4]
  AUC0-last: 1781.00 ng·h/mL
  AUCINF: 1790.00 ng·h/mL
  Cmax: 247.00 ng/mL
  T1/2: 2.77 h
  Tmax: 5.00 h
  in vivo exposure levels: higher than those of free base crystal form I

## CCn1ncc2c(Nc3cc(C)[nH]n3)nc([C@H]3CC[C@](OC)(C(=O)N[C@@H](C)c4cnc(-n5cc(F)cn5)cn4)CC3)nc21 [Malate crystal form I]
[2]
  Purity (Area%) 40 °C/ 75%RH: 98.742 Area%
  Purity (Area%) 60 °C/ Closed: 98.753 Area%
  Initial purity (Area%): 98.772 Area%
  XRPD 40 °C/ 75%RH: Unchanged
  XRPD 60 °C/ Closed: Unchanged
[3]
  in vivo exposure levels: higher than those of free base crystal form I
[10]; [12]
  Solubility (µg/mL) 2 h: 2.650 µg/mL
[10]; FeSSIF (pH=5.00), 30 min
  Solubility (µg/mL) 0.5 h: 58.771 µg/mL
[10]; FeSSIF (pH=5.00)
  Solubility (µg/mL) 2 h: 19.818 µg/mL
  Solubility (µg/mL) 24 h: 16.658 µg/mL
[10]; SGF (pH=1.19), 30 min
  Solubility (µg/mL) 0.5 h: 204.753 µg/mL
[10]; SGF (pH=1.19)
  Solubility (µg/mL) 2 h: 113.155 µg/mL
  Solubility (µg/mL) 24 h: 79.977 µg/mL
[10]; SGF medium at 0.5 hours, 30 min
  maximum solubility: 200 µg/mL
[10]; [13]
  XRPD (24 h): Changed
[10]; [14]
  XRPD (24 h): Almost amorphous
[10]; [15]
  XRPD (24 h): Changed
[10]; [16]
  XRPD (24 h): Unchanged
[4]
  AUC0-last: 1209.00 ng·h/mL
  AUCINF: 1217.00 ng·h/mL
  Cmax: 177.00 ng/mL
  T1/2: 2.31 h
  Tmax: 3.00 h
  in vivo exposure levels: higher than those of free base crystal form I

## CCn1ncc2c(Nc3cc(C)[nH]n3)nc([C@H]3CC[C@](OC)(C(=O)N[C@@H](C)c4cnc(-n5cc(F)cn5)cn4)CC3)nc21 [amorphous free base]
[11]; Acetone
  Result (solid form obtained): Free base crystal form III
[11]; Methanol
  Result (solid form obtained): Free base crystal form I
[11]; suspension in methanol or acetone, room temperature, 2 days
  stability of the solid form in the solvent: unstable and easily transformed into other crystal forms
